Columns and labels:
in vitro = conditions: human
Description: Intrinsic clearance in human liver microsomes assessed per mg of microsomal protein at 0.2 to 1 uM after 30 mins by HPLC analysis

[1] = molecular target: 11-beta-hydroxysteroid dehydrogenase 1 (Homo sapiens, UniProt P28845); assay: Inhibition of human 11beta-HSD1 by competitive binding assay
11-beta-hydroxysteroid dehydrogenase 1, sequence (P28845 whole entry): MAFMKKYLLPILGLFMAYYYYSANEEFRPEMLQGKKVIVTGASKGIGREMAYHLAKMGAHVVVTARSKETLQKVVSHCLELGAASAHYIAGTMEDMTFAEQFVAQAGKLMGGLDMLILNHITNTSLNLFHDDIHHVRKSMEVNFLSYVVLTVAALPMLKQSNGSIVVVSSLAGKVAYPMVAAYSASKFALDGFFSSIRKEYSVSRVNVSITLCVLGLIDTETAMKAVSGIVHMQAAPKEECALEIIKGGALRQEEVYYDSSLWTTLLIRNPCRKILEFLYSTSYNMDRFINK

SMILES | microsomal CLint at 0.5 h, 1 µM (in vitro; liver microsomes) | microsomal CLint at 0.5 h, 1 µM (in vitro; microsomes) | IC50 [1]
O=C(c1ccc(F)cc1)C1CCN(C(=O)c2cccc(F)c2)CC1 | 31.9 µL/min/mg |  | 
CCN(C(=O)NCc1ccc(S(C)(=O)=O)cc1)C1CCN(CCC(c2ccc(F)cc2)C2CCN(Cc3cccnc3)CC2)CC1 (configuration not stated) | 5 µL/min/mg |  | 
CCN(C(=O)NCc1ccc(S(C)(=O)=O)cc1)C1CCN(CCC(c2ccc(F)cc2)C2CCN(Cc3ccc4ccccc4n3)CC2)CC1 (configuration not stated) | 3 µL/min/mg |  | 
CCN(C(=O)NCc1ccc(S(C)(=O)=O)cc1)C1CCN(CCC(c2ccccc2)C2CCN(Cc3cccnc3)CC2)CC1 (configuration not stated) | > 150 µL/min/mg |  | 
O=C(c1ccc(F)cc1)C1CCN(C(=O)c2ccc(Cl)c(Cl)c2)CC1 | 16.5 µL/min/mg |  | 
CCN(C(=O)NCc1ccc(F)cc1)C1CCN(CCC(c2ccccc2)c2ccccc2)CC1 |  | 105 µL/min/mg | 
CCN(C(=O)NCc1cccc(F)c1)C1CCN(CCC(c2ccccc2)c2ccccc2)CC1 | 86 µL/min/mg |  | 
CCN(C(=O)NCc1ccccc1F)C1CCN(CCC(c2ccccc2)c2ccccc2)CC1 | 74 µL/min/mg |  | 
NS(=O)(=O)c1cccc(C(=O)N2CCC(C(=O)c3ccc(F)cc3)CC2)c1 | 13 µL/min/mg |  | > 30 µM
O=C(c1ccc(F)cc1)C1CCN(C(=O)c2cccc(C(F)(F)F)c2)CC1 | 13.7 µL/min/mg |  | 
O=C(c1ccc(F)cc1)C1CCN(C(=O)c2ccc(-c3ccccc3)cc2)CC1 | 4.93 µL/min/mg |  | 
O=C(c1ccc(F)cc1)C1CCN(C(=O)c2ccc(Cl)cc2Cl)CC1 | 41.2 µL/min/mg |  | > 30 µM
O=C(c1ccc(F)cc1)C1CCN(C(=O)c2cccc(Cl)c2)CC1 | 22.2 µL/min/mg |  | 
O=C(c1ccc(F)cc1)C1CCN(C(=O)c2cc(F)cc(F)c2)CC1 | 25.3 µL/min/mg |  | > 30 µM
COc1ccccc1C(=O)N1CCC(C(=O)c2ccc(F)cc2)CC1 | 14.3 µL/min/mg |  | 23.6 µM
CS(=O)(=O)c1cccc(C(=O)N2CCC(C(=O)c3ccc(F)cc3)CC2)c1 | 11.4 µL/min/mg |  | > 30 µM
COc1cccc(C(=O)N2CCC(C(=O)c3ccc(F)cc3)CC2)c1 | 12.9 µL/min/mg |  | 
Nc1ccccc1C(=O)N1CCC(C(=O)c2ccc(F)cc2)CC1 | 15.6 µL/min/mg |  | 
O=C(c1ccc(F)cc1)C1CCN(C(=O)c2ccccc2Cl)CC1 | 32.6 µL/min/mg |  | 
O=C(c1ccc(F)cc1)C1CCN(C(=O)c2ccccc2)CC1 | 23 µL/min/mg |  | 3.61 µM
O=C(c1ccc(F)cc1)C1CCN(C(=O)c2ccccc2OC(F)(F)F)CC1 | 16.9 µL/min/mg |  | 
O=C(c1ccc(F)cc1)C1CCN(C(=O)c2cccc(Br)c2)CC1 | 19.3 µL/min/mg |  | 
CCN(C(=O)NCc1c(F)cccc1F)C1CCN(CCC(c2ccccc2)c2ccccc2)CC1 | 6 µL/min/mg |  | 
CN(C)c1cccc(C(=O)N2CCC(C(=O)c3ccc(F)cc3)CC2)c1 | 53.5 µL/min/mg |  | 
O=C(c1ccc(F)cc1)C1CCN(C(=O)c2ccc(C(F)(F)F)cc2)CC1 | 15.5 µL/min/mg |  | 
COc1ccc(C(=O)N2CCC(C(=O)c3ccc(F)cc3)CC2)c(OC)c1 | 15.8 µL/min/mg |  | 
N#Cc1cccc(C(=O)N2CCC(C(=O)c3ccc(F)cc3)CC2)c1 | 14.5 µL/min/mg |  | > 30 µM
COc1ccc(C(=O)N2CCC(C(=O)c3ccc(F)cc3)CC2)cc1 | 22.6 µL/min/mg |  | 15.8 µM

SMILES | microsomal CLint at 0.5 h, 1 µM (in vitro; liver microsomes) | microsomal CLint at 0.5 h, 1 µM (in vitro; microsomes) | IC50 [1]
O=C(c1ccc(F)cc1)C1CCN(C(=O)c2ccccc2F)CC1 | 46.5 µL/min/mg |  | 7.44 µM
O=C(c1ccc(F)cc1)C1CCN(C(=O)c2ccc(N3CCOCC3)cc2)CC1 | 15.2 µL/min/mg |  | 
Cc1cccc(C(=O)N2CCC(C(=O)c3ccc(F)cc3)CC2)c1 | 43.6 µL/min/mg |  | 
COc1cccc(C(=O)N2CCC(C(=O)c3ccc(F)cc3)CC2)c1OC | 14.9 µL/min/mg |  | 
O=C(c1ccc(F)cc1)C1CCN(C(=O)c2cccc(F)c2F)CC1 | 18 µL/min/mg |  | > 30 µM
O=C(c1ccc(F)cc1)C1CCN(C(=O)c2ccc(Cl)c(C(F)(F)F)c2)CC1 | 11.5 µL/min/mg |  | 
NS(=O)(=O)c1ccc(C(=O)N2CCC(C(=O)c3ccc(F)cc3)CC2)cc1 | 12.3 µL/min/mg |  | > 30 µM
O=C(c1ccc(F)cc1)C1CCN(C(=O)c2ccc(F)cc2)CC1 | 17.1 µL/min/mg |  | 21.8 µM
CC(=O)c1ccc(C(=O)N2CCC(C(=O)c3ccc(F)cc3)CC2)cc1 | 19.8 µL/min/mg |  | 
CCN(C(=O)NCc1ccc(S(C)(=O)=O)cc1)C1CCN(CCC(c2ccccc2)C2CCN(Cc3ccc4ccccc4n3)CC2)CC1 (configuration not stated) | > 150 µL/min/mg |  | 
CS(=O)(=O)Nc1cccc(C(=O)N2CCC(C(=O)c3ccc(F)cc3)CC2)c1 | 9.23 µL/min/mg |  | > 30 µM
Cc1ccc(C(=O)N2CCC(C(=O)c3ccc(F)cc3)CC2)cc1 | 41.8 µL/min/mg |  | 3.41 µM
CS(=O)(=O)c1ccc(C(=O)N2CCC(C(=O)c3ccc(F)cc3)CC2)cc1 | 12.4 µL/min/mg |  | > 30 µM
Cc1ccccc1C(=O)N1CCC(C(=O)c2ccc(F)cc2)CC1 | 23.5 µL/min/mg |  | 
O=C(c1ccc(F)cc1)C1CCN(C(=O)c2ccc(OC(F)(F)F)cc2)CC1 | 17.9 µL/min/mg |  | 
CCN(C(=O)NCc1cc(F)cc(F)c1)C1CCN(CCC(c2ccccc2)c2ccccc2)CC1 | < 3 µL/min/mg |  | 
Cc1ncc(-c2ccnc(Nc3ccccc3)n2)n1C(C)C | 63.5 µL/min/mg |  | 
O=C(c1ccc(F)cc1)C1CCN(C(=O)c2ccc(Cl)cc2)CC1 | 18.6 µL/min/mg |  | 6.02 µM
O=C(c1ccc(F)cc1)C1CCN(C(=O)c2cccc(OC(F)(F)F)c2)CC1 | 31.8 µL/min/mg |  | 
O=C(c1ccc(F)cc1)C1CCN(C(=O)c2ccc(F)cc2Cl)CC1 | 18 µL/min/mg |  | 
O=C(c1ccc(F)cc1)C1CCN(C(=O)c2ccc(F)c(F)c2)CC1 | 12.5 µL/min/mg |  | 
N#Cc1ccccc1C(=O)N1CCC(C(=O)c2ccc(F)cc2)CC1 | 28.4 µL/min/mg |  | 
N#Cc1ccc(C(=O)N2CCC(C(=O)c3ccc(F)cc3)CC2)cc1 | 11.7 µL/min/mg |  | > 30 µM
O=C(c1ccc(F)cc1)C1CCN(C(=O)c2cccc([N+](=O)[O-])c2)CC1 | 5.3 µL/min/mg |  | 
O=C(c1ccc(F)cc1)C1CCN(C(=O)c2ccc([N+](=O)[O-])cc2)CC1 | 9 µL/min/mg |  | 
O=C(c1ccc(F)cc1)C1CCN(C(=O)c2ccc(Br)cc2)CC1 | 22.7 µL/min/mg |  | 
CCN(C(=O)NCc1cc(F)ccc1F)C1CCN(CCC(c2ccccc2)c2ccccc2)CC1 | < 4 µL/min/mg |  | 
